Assay results: the NIST ThermoML archive (doi:10.1007/s10765-010-0768-y)
Numbers after ± are expanded uncertainties.

experiment: xn = mol fraction of the nth substance listed; conditions: 288.15 K; 101 kPa; Liquid; Pycnometric method; x2 = 0

Row | SMILES | mass density
1 | c1ccccc1 [benzene] + C=CC(=O)OCCCC | 884.3 ± 0.22 kg/m3
2 | Cc1ccccc1C [1,2-dimethylbenzene] + C=CC(=O)OCCCC | 884.09 ± 0.22 kg/m3
3 | Cc1ccccc1 [toluene] + C=CC(=O)OCCCC | 871.79 ± 0.21 kg/m3
4 | Cc1ccc(C)cc1 [1,4-dimethylbenzene] + C=CC(=O)OCCCC | 865.52 ± 0.22 kg/m3
5 | Cc1cc(C)cc(C)c1 [1,3,5-trimethylbenzene] + C=CC(=O)OCCCC | 869.28 ± 0.24 kg/m3
6 | Cc1cccc(C)c1 [1,3-dimethylbenzene] + C=CC(=O)OCCCC | 868.59 ± 0.22 kg/m3

same assay, conditions: 293.15 K; 101 kPa; Liquid; Pycnometric method; x2 = 0

Row | SMILES | mass density
7 | c1ccccc1 [benzene] + C=CC(=O)OCCCC | 878.95 ± 0.2 kg/m3
8 | Cc1ccccc1C [1,2-dimethylbenzene] + C=CC(=O)OCCCC | 879.83 ± 0.21 kg/m3
9 | Cc1ccccc1 [toluene] + C=CC(=O)OCCCC | 867.08 ± 0.2 kg/m3
10 | Cc1ccc(C)cc1 [1,4-dimethylbenzene] + C=CC(=O)OCCCC | 861.17 ± 0.2 kg/m3
11 | Cc1cc(C)cc(C)c1 [1,3,5-trimethylbenzene] + C=CC(=O)OCCCC | 865.37 ± 0.23 kg/m3
12 | Cc1cccc(C)c1 [1,3-dimethylbenzene] + C=CC(=O)OCCCC | 864.31 ± 0.21 kg/m3

same assay, conditions: 298.15 K; 101 kPa; Liquid; Pycnometric method; x2 = 0

Row | SMILES | mass density
13 | c1ccccc1 [benzene] + C=CC(=O)OCCCC | 873.61 ± 0.21 kg/m3
14 | Cc1ccccc1C [1,2-dimethylbenzene] + C=CC(=O)OCCCC | 875.57 ± 0.22 kg/m3
15 | Cc1ccccc1 [toluene] + C=CC(=O)OCCCC | 862.36 ± 0.21 kg/m3
16 | Cc1ccc(C)cc1 [1,4-dimethylbenzene] + C=CC(=O)OCCCC | 856.82 ± 0.21 kg/m3
17 | Cc1cc(C)cc(C)c1 [1,3,5-trimethylbenzene] + C=CC(=O)OCCCC | 861.45 ± 0.24 kg/m3
18 | Cc1cccc(C)c1 [1,3-dimethylbenzene] + C=CC(=O)OCCCC | 860.02 ± 0.22 kg/m3

same assay, conditions: 303.15 K; 101 kPa; Liquid; Pycnometric method; x2 = 0

Row | SMILES | mass density
19 | c1ccccc1 [benzene] + C=CC(=O)OCCCC | 868.26 ± 0.22 kg/m3
20 | Cc1ccccc1C [1,2-dimethylbenzene] + C=CC(=O)OCCCC | 871.31 ± 0.23 kg/m3
21 | Cc1ccccc1 [toluene] + C=CC(=O)OCCCC | 857.64 ± 0.22 kg/m3
22 | Cc1ccc(C)cc1 [1,4-dimethylbenzene] + C=CC(=O)OCCCC | 852.47 ± 0.22 kg/m3
23 | Cc1cc(C)cc(C)c1 [1,3,5-trimethylbenzene] + C=CC(=O)OCCCC | 857.54 ± 0.25 kg/m3
24 | Cc1cccc(C)c1 [1,3-dimethylbenzene] + C=CC(=O)OCCCC | 855.74 ± 0.23 kg/m3

same assay, conditions: 308.15 K; 101 kPa; Liquid; Pycnometric method; x2 = 0

Row | SMILES | mass density
25 | c1ccccc1 [benzene] + C=CC(=O)OCCCC | 862.9 ± 0.23 kg/m3
26 | Cc1ccccc1C [1,2-dimethylbenzene] + C=CC(=O)OCCCC | 867.05 ± 0.24 kg/m3
27 | Cc1ccccc1 [toluene] + C=CC(=O)OCCCC | 852.93 ± 0.23 kg/m3
28 | Cc1ccc(C)cc1 [1,4-dimethylbenzene] + C=CC(=O)OCCCC | 848.12 ± 0.23 kg/m3
29 | Cc1cc(C)cc(C)c1 [1,3,5-trimethylbenzene] + C=CC(=O)OCCCC | 853.63 ± 0.26 kg/m3
30 | Cc1cccc(C)c1 [1,3-dimethylbenzene] + C=CC(=O)OCCCC | 851.45 ± 0.24 kg/m3

same assay, conditions: 313.15 K; 101 kPa; Liquid; Pycnometric method; x2 = 0

Row | SMILES | mass density
31 | c1ccccc1 [benzene] + C=CC(=O)OCCCC | 857.56 ± 0.24 kg/m3
32 | Cc1ccccc1C [1,2-dimethylbenzene] + C=CC(=O)OCCCC | 862.79 ± 0.25 kg/m3
33 | Cc1ccccc1 [toluene] + C=CC(=O)OCCCC | 848.21 ± 0.24 kg/m3
34 | Cc1ccc(C)cc1 [1,4-dimethylbenzene] + C=CC(=O)OCCCC | 843.77 ± 0.24 kg/m3
35 | Cc1cc(C)cc(C)c1 [1,3,5-trimethylbenzene] + C=CC(=O)OCCCC | 849.71 ± 0.27 kg/m3
36 | Cc1cccc(C)c1 [1,3-dimethylbenzene] + C=CC(=O)OCCCC | 847.17 ± 0.25 kg/m3

same assay, conditions: 318.15 K; 101 kPa; Liquid; Pycnometric method; x2 = 0

Row | SMILES | mass density
37 | c1ccccc1 [benzene] + C=CC(=O)OCCCC | 852.23 ± 0.25 kg/m3
38 | Cc1ccccc1C [1,2-dimethylbenzene] + C=CC(=O)OCCCC | 858.53 ± 0.26 kg/m3
39 | Cc1ccccc1 [toluene] + C=CC(=O)OCCCC | 843.49 ± 0.25 kg/m3
40 | Cc1ccc(C)cc1 [1,4-dimethylbenzene] + C=CC(=O)OCCCC | 839.42 ± 0.25 kg/m3
41 | Cc1cc(C)cc(C)c1 [1,3,5-trimethylbenzene] + C=CC(=O)OCCCC | 845.8 ± 0.28 kg/m3
42 | Cc1cccc(C)c1 [1,3-dimethylbenzene] + C=CC(=O)OCCCC | 842.88 ± 0.26 kg/m3

experiment: not given; conditions: 288.15 K; 101 kPa; Liquid; Pycnometric method

Row | SMILES | mass density
43 | Cc1ccccc1 [toluene] | 871.79 ± 0.21 kg/m3
44 | c1ccccc1 [benzene] | 884.3 ± 0.22 kg/m3
45 | Cc1cccc(C)c1 [1,3-dimethylbenzene] | 868.59 ± 0.22 kg/m3
